Results on 28 compounds are retold here after patent US9714266B2, “Estra-1,3,5(10),16-tetraene-3-carboxamides for inhibition of 17β-hydroxysteroid dehydrogenase (AKR1C3)” (priority 2013, dated 2017).

This test addresses AKR1C3 (Homo sapiens (Human), UniProt P42330). The test can be described thus: AKR1C3 enzyme assay (coumberone reduction, fluorescence). It counts as biochemical. To be noted: recombinant human AKR1C3, coumberone 0.3 μM, NADPH 10 μM; read-out: AKR1C3 enzyme inhibition IC50. As for the experimental part:
The AKR1C3-inhibitory action of the substances of this invention was measured in the AKR1C3 assay described in the paragraphs which follow. Essentially, the enzyme activity is measured by quantifying the coumberol formed from coumberone ([…]., and […]. AM. CHEM. SOC. 130, 14123-14128 (2008) […]., Bauman, D. R., Penning, T. M., and […]., Proc. Natl. Acad. Sci. USA 103, 13304-13309 (2006)). In this assay, the increase in the highly fluorescent coumberol can be determined by NADPH (nicotinamide adenine dinucleotide phosphate)-dependent reduction of the nonfluorescent coumberone by AKR1C3. […] NM_003739). This was expressed as the GST (glutathione S-transferase) fusion protein in E. coli and purified by means of glutathione-Sepharose affinity chromatography. The GST was removed by thrombin digestion with subsequent size exclusion chromatography (Dufort, I., Rheault, P., Huang, X F., Soucy, P., and Luu-The, V., Endocrinology 140, 568-574 (1999)). […] The concentration of the AKR1C3 was matched to the respective activity of the enzyme preparation and set such that the assay worked within the linear range. Typical concentrations were in the region of 1 nM. The reaction was stopped by adding 5 μl of a stop solution consisting of the inhibitor EM-1404 [F. Labrie et al. U.S. Pat. […] Subsequently, the fluorescence of coumberol was measured at 520 nm (excitation at 380 nm) with a suitable measuring instrument (Pherastar from BMG Labtechnologies).

Where “and” joins values, the source holds several entries; their conditions need not be identical. Equal entries are not always repeated.

Sequence of AKR1C3 (P42330 whole entry): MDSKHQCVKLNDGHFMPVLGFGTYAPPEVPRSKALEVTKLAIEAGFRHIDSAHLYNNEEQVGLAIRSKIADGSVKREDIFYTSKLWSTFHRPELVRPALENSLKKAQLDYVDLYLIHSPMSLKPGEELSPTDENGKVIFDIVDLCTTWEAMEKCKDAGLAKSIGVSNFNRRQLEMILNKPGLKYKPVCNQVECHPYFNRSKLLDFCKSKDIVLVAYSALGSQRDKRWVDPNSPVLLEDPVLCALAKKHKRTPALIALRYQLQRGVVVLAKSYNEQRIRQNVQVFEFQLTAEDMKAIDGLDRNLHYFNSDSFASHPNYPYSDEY

As for `CNC(=O)CCNC(=O)c1ccc2c(c1)CC[C@@H]1[C@@H]2CC[C@]2(C)C(c3cncc(F)c3)=CC[C@@H]12` [Example 27, 17-(5-fluoropyridin-3-yl)-N-[3-(methylamino)-3-oxopropyl]oestra-1,3,5(10),16-tetraene-3-carboxamide], the concentration for half-maximal inhibition (IC50) amounted to 5 nM.
Turning to `C[C@]12CC[C@@H]3c4ccc(C(=O)NCCC(N)=O)cc4CC[C@H]3[C@@H]1CC=C2c1cncc(F)c1` [Example 26, N-(3-amino-3-oxopropyl)-17-(5-fluoropyridin-3-yl)oestra-1,3,5(10),16-tetraene-3-carboxamide], the IC50 is 5 nM.
The figure for `C[C@]12CC[C@@H]3c4ccc(C(=O)NCCS(N)(=O)=O)cc4CC[C@H]3[C@@H]1CC=C2c1cncnc1` [Example 47, 17-(pyrimidin-5-yl)-N-(2-sulphamoylethyl)oestra-1,3,5(10),16-tetraene-3-carboxamide] is 119 nM; for `C[C@H](O)CNC(=O)c1ccc2c(c1)CC[C@@H]1[C@@H]2CC[C@]2(C)C(c3cncc(F)c3)=CC[C@@H]12` [Example 45, 17-(5-fluoropyridin-3-yl)-N—[(S)-2-hydroxypropyl]oestra-1,3,5(10),16-tetraene-3-carboxamide] it is 6 nM.
`C[C@]12CC[C@@H]3c4ccc(C(=O)N[C@H]5CCC[C@@H]5O)cc4CC[C@H]3[C@@H]1CC=C2c1cncc(F)c1` [Example 11, 17-(5-fluoropyridin-3-yl)-N-[(1S,2S)-2-hydroxycyclopentyl]oestra-1,3,5(10),16-tetraene-3-carboxamide]: the IC50 was 34 nM and 20 nM.
Take `C[S+]([O-])CCNC(=O)c1ccc2c(c1)CC[C@@H]1[C@@H]2CC[C@]2(C)C(c3cncc(F)c3)=CC[C@@H]12` (stereo partly shown) [Example 37, 17-(5-fluoropyridin-3-yl)-N-[2-(methylsulphinyl)ethyl]oestra-1,3,5(10),16-tetraene-3-carboxamide]: the IC50 is 5 nM.
The figure for `CC(O)C(C)NC(=O)c1ccc2c(c1)CCC1C2CCC2(C)C(c3cncc(F)c3)=CCC12` [Example 18, rel-17-(5-fluoropyridin-3-yl)-N-[(1R,2R)-2-hydroxy-1-methylpropyl]oestra-1,3,5(10),16-tetraene-3-carboxamide] is 45 nM and 35 nM.
For the compound `C[C@]12CC[C@@H]3c4ccc(C(N)=O)cc4CC[C@H]3[C@@H]1CC=C2c1cncc(C(F)(F)F)c1` [Example 3, 17-[5-(trifluoromethyl)pyridin-3-yl]oestra-1,3,5(10),16-tetraene-3-carboxamide], the IC50 is 46 nM and 25 nM.
Regarding `C[C@]12CC[C@@H]3c4ccc(C(=O)NCCS(N)(=O)=O)cc4CC[C@H]3[C@@H]1CC=C2c1cncc(C(F)(F)F)c1` [Example 24, N-(2-sulphamoylethyl)-17-[5-(trifluoromethyl)pyridin-3-yl]oestra-1,3,5(10),16-tetraene-3-carboxamide], the IC50 amounted to 17 nM.
With `CC(C)S(=O)(=O)CCNC(=O)c1ccc2c(c1)CC[C@@H]1[C@@H]2CC[C@]2(C)C(c3cncc(F)c3)=CC[C@@H]12` [Example 42, 17-(5-fluoropyridin-3-yl)-N-[2-(isopropylsulphonyl)ethyl]oestra-1,3,5(10),16-tetraene-3-carboxamide], the IC50 stood at 11 nM.
With `C[C@]12CC[C@@H]3c4ccc(C(N)=O)cc4CC[C@H]3[C@@H]1CC=C2c1cncc(C#N)c1` [Example 6, 17-(5-cyanopyridin-3-yl)oestra-1,3,5(10),16-tetraene-3-carboxamide], the 50% inhibitory concentration (IC50) worked out at 346 nM.
In the case of `CN(CCO)C(=O)c1ccc2c(c1)CC[C@@H]1[C@@H]2CC[C@]2(C)C(c3cncc(F)c3)=CC[C@@H]12` [Example 44, 17-(5-fluoropyridin-3-yl)-N-(2-hydroxyethyl)-N-methyloestra-1,3,5(10),16-tetraene-3-carboxamide], the IC50 was 12 nM.
As to `C[C@]12CC[C@@H]3c4ccc(C(N)=O)cc4CC[C@H]3[C@@H]1CC=C2c1cncnc1` [Example 5, 17-(pyrimidin-5-yl)oestra-1,3,5(10),16-tetraene-3-carboxamide], the IC50 was 313 nM and 199 nM and 143 nM.
`C[C@]12CC[C@@H]3c4ccc(C(=O)NCCS(N)(=O)=O)cc4CC[C@H]3[C@@H]1CC=C2c1cccnc1` [Example 23, 17-(3-pyridyl)-N-(2-sulphamoylethyl)oestra-1,3,5(10),16-tetraene-3-carboxamide]: the half-inhibitory concentration (IC50) is 9 nM.
In the case of `CNS(=O)(=O)CCNC(=O)c1ccc2c(c1)CC[C@@H]1[C@@H]2CC[C@]2(C)C(c3cncc(C(F)(F)F)c3)=CC[C@@H]12` [Example 25, N-[2-(N-methylsulphamoyl)ethyl]-17-[5-(trifluoromethyl)pyridin-3-yl]oestra-1,3,5(10),16-tetraene-3-carboxamide], the IC50 stood at 48 nM.
The figure for `C[C@]12CC[C@@H]3c4ccc(C(=O)N5CCC[C@H]5C(N)=O)cc4CC[C@H]3[C@@H]1CC=C2c1cncc(F)c1` [Example 30, 1-{[17-(5-fluoropyridin-3-yl)oestra-1,3,5(10),16-tetraen-3-yl]carbonyl}-L-prolinamide] is 12 nM.
With `COCCNC(=O)c1ccc2c(c1)CC[C@@H]1[C@@H]2CC[C@]2(C)C(c3cncc(F)c3)=CC[C@@H]12` [Example 41, 17-(5-fluoropyridin-3-yl)-N-(2-methoxyethyl)oestra-1,3,5(10),16-tetraene-3-carboxamide], the IC50 worked out at 8 nM.
For `CCNC(=O)c1ccc2c(c1)CC[C@@H]1[C@@H]2CC[C@]2(C)C(c3cncc(F)c3)=CC[C@@H]12` [Example 39, N-ethyl-17-(5-fluoropyridin-3-yl)oestra-1,3,5(10),16-tetraene-3-carboxamide], the IC50 was found to be 5 nM.
`C[C@]12C[C@H](F)[C@@H]3c4ccc(C(=O)NCCS(N)(=O)=O)cc4CC[C@H]3[C@@H]1CC=C2c1cncc(F)c1` [Example 8, 11β-fluoro-17-(5-fluoropyridin-3-yl)-N-(2-sulphamoylethyl)oestra-1,3,5(10),16-tetraene-3-carboxamide]: the IC50 amounted to 73 nM.
Then `CC(C)(CNC(=O)c1ccc2c(c1)CC[C@@H]1[C@@H]2CC[C@]2(C)C(c3cncc(F)c3)=CC[C@@H]12)NS(C)(=O)=O` [Example 31, 17-(5-fluoropyridin-3-yl)-N-{2-methyl-2-[(methylsulphonyl)amino]propyl}oestra-1,3,5(10),16-tetraene-3-carboxamide], with 19 nM.
Consider `CCN(CCO)C(=O)c1ccc2c(c1)CC[C@@H]1[C@@H]2CC[C@]2(C)C(c3cncc(F)c3)=CC[C@@H]12` [Example 32, N-ethyl-17-(5-fluoropyridin-3-yl)-N-(2-hydroxyethyl)oestra-1,3,5(10),16-tetraene-3-carboxamide], for which the IC50 turned out to be 11 nM.
In the case of `C[C@]12CC[C@@H]3c4ccc(C(=O)N5CCC(O)CC5)cc4CC[C@H]3[C@@H]1CC=C2c1cncc(F)c1` [Example 14, 17-(5-fluoropyridin-3-yl)oestra-1,3,5(10),16-tetraen-3-yl 4-hydroxypiperidin-1-yl ketone], the 50% inhibitory concentration (IC50) was 54 nM and 37 nM.
As to `C[C@]12CC[C@@H]3c4ccc(C(=O)NC5(CO)CCCC5)cc4CC[C@H]3[C@@H]1CC=C2c1cncc(F)c1` [Example 13, 17-(5-fluoropyridin-3-yl)-N-[1-(hydroxymethyl)cyclopentyl]oestra-1,3,5(10),16-tetraene-3-carboxamide], the IC50 was 108 nM and 79 nM.
`CC(C)(CO)CNC(=O)c1ccc2c(c1)CC[C@@H]1[C@@H]2CC[C@]2(C)C(c3cncc(F)c3)=CC[C@@H]12` [Example 10, 17-(5-fluoropyridin-3-yl)-N-[2-(hydroxymethyl)-2-methylpropyl]oestra-1,3,5(10),16-tetraene-3-carboxamide]: the IC50 was 97 nM and 46 nM.
On to `C[C@]12CC[C@@H]3c4ccc(C(=O)N[C@H]5CCC[C@H]5O)cc4CC[C@H]3[C@@H]1CC=C2c1cncc(F)c1` [Example 9, 17-(5-fluoropyridin-3-yl)-N-[(1S,2R)-2-hydroxycyclopentyl]oestra-1,3,5(10),16-tetraene-3-carboxamide], for which the IC50 was 61 nM and 81 nM.
Regarding `CC[C@@H](CO)NC(=O)c1ccc2c(c1)CC[C@@H]1[C@@H]2CC[C@]2(C)C(c3cncc(F)c3)=CC[C@@H]12` [Example 15, 17-(5-fluoropyridin-3-yl)-N—[(S)-1-(hydroxymethyl)propyl]oestra-1,3,5(10),16-tetraene-3-carboxamide], the IC50 was 25 nM.
With `C[C@]12CC[C@@H]3c4ccc(C(=O)NC[C@@H](O)CO)cc4CC[C@H]3[C@@H]1CC=C2c1cncc(F)c1` [Example 36, N—[(R)-2,3-dihydroxypropyl]-17-(5-fluoropyridin-3-yl)oestra-1,3,5(10),16-tetraene-3-carboxamide], the IC50 came to 6 nM.
On to `CC(C)N(CCO)C(=O)c1ccc2c(c1)CC[C@@H]1[C@@H]2CC[C@]2(C)C(c3cncc(F)c3)=CC[C@@H]12` [Example 19, 17-(5-fluoropyridin-3-yl)-N-(2-hydroxyethyl)-N-isopropyloestra-1,3,5(10),16-tetraene-3-carboxamide], for which the IC50 was 60 nM and 48 nM.
